# Data reported in patent US10940139B2, “Compounds that interact with the Ras superfamily for the treatment of cancers, inflammatory diseases, rasopathies, and fibrotic disease” (Shy Therapeutics LLC, priority 2017, dated 2021).
# Tested on: MIA-PACA2 pancreatic cancer cell lines
# Assay: Cell proliferation assay (CellTiter 96 AQueous One)
# Assay type: cell-based
# Conditions: Homo sapiens, MIA PaCa-2; at 30 μM, MIA-PACA2
# Description: Cell lines: Tumor-derived pancreatic cancer cell lines MIA-PACA2 were purchased from ATCC and grown in complete DMEM-High Glucose medium supplemented with penicillin (100 U/mL), streptomycin (100 μg/mL), and 10% heat-inactivated FBS at 37° C. in a humidified incubator with 5% CO2.
# Method: Cells are plated at 1000 cells/well density in 96-wells plate, starved ON, and the next day tested small molecules are added to the cells in the final concentration of 30 μM with 0.3% DMSO 3 hours prior to 10% FBS addition. After serum addition cells are incubated for 6 days at 37° C. in a humidified incubator with 5% CO2. For IC50 value determination, serial dilutions of compounds were added to cells under the same conditions.
# Assay: At the end of the incubation period, cell cultures are tested using the CellTiter 96® AQueous One Solution Cell Proliferation Assay kit (Promega Corporation, Madison, Wis.) according to the manufacturer specifications. Briefly, assay is performed by adding 20 μl of the CellTiter 96 Aqueous One Solution Reagent directly to culture wells, followed by for 1-4 hours incubation at 37° C. in a humidified incubator with 5% CO2. At the end of incubation time, absorbance at 492 nm is recorded with the 96-well plate reader Eppendorf AF2200, and degree of small molecule-dependent proliferation inhibition is calculated from raw data assuming No Serum cells value as 100%.
row,SMILES,inhibition at 30 µM [%]
1,Cc1ccc(C(=O)Nc2nnc(-c3ccccn3)[nH]2)cc1S(C)(=O)=O [drawing 1391],51 to 75
2,O=C(CCn1ccc2ccccc21)Nc1nnc(-c2ccccn2)[nH]1 [drawing 1392],51 to 75
3,Cc1oc(-c2ccccc2)nc1C(=O)Nc1nnc(-c2ccccn2)[nH]1 [drawing 1393],76 to 100
4,O=C(Nc1nnc(-c2ccccn2)[nH]1)c1ccn(-c2ccccc2)n1 [drawing 1394],76 to 100
5,Cc1c(C(=O)Nc2nnc(-c3ccccn3)[nH]2)oc2ccccc12 [drawing 1395],76 to 100
6,CC(Oc1ccccc1Cl)C(=O)Nc1nnc(-c2ccccn2)[nH]1 (stereo not drawn) [drawing 1396],76 to 100
7,O=C(Nc1nnc(-c2ccccn2)[nH]1)c1ccn(-c2cccc(F)c2)n1 [drawing 1397],76 to 100
8,COc1ccc(CCC(=O)Nc2nnc(-c3ccccn3)[nH]2)cc1 [drawing 1398],51 to 75
9,COc1ccc2c(ccn2CC(=O)Nc2nnc(-c3ccccn3)[nH]2)c1 [drawing 1399],76 to 100
10,O=C(CCc1c[nH]c2ccccc12)Nc1nnc(-c2ccccn2)[nH]1 [drawing 1400],51 to 75
11,O=C(Nc1nnc(-c2ccccn2)[nH]1)c1ccc2ccccc2n1 [drawing 1401],25 to 50
12,Cc1ccc(CC(=O)Nc2nnc(-c3ccccn3)[nH]2)cc1 [drawing 1402],25 to 50
13,Cn1cc(-c2nc(C(=O)Nc3nnc(-c4ccccn4)[nH]3)cs2)cn1 [drawing 1403],76 to 100
14,Cc1c(C(=O)Nc2nnc(-c3ccccn3)[nH]2)oc2c1C(=O)CCC2 [drawing 1404],76 to 100
15,O=C(Nc1nnc(-c2ccccn2)[nH]1)c1ccc(CN2C(=O)CCC2=O)cc1 [drawing 1405],1 to 25
16,CN(Cc1nnc(-c2ccccc2Cl)o1)Cc1ccccc1C(F)(F)F [drawing 1406],25 to 50
17,O=C(CC1C=CCC1)Nc1nnc(-c2ccccn2)[nH]1 (stereo not drawn) [drawing 1407],51 to 75
18,COc1ccc(CC(=O)Nc2nnc(-c3ccccn3)[nH]2)cc1 [drawing 1408],76 to 100
19,O=C(Cc1cccs1)Nc1nnc(-c2ccccn2)[nH]1 [drawing 1409],1 to 25
20,O=C(Nc1nnc(-c2ccccn2)[nH]1)c1ccc(Oc2ccccc2)nc1 [drawing 1410],51 to 75
21,Cc1noc(C)c1CC(=O)Nc1nnc(-c2ccccn2)[nH]1 [drawing 1411],25 to 50
22,CC(C)(C)c1noc(CCC(=O)Nc2nnc(-c3ccccn3)[nH]2)n1 [drawing 1412],25 to 50
23,O=C(Cc1ccccc1)NCCC(=O)Nc1nnc(-c2ccccn2)[nH]1 [drawing 1413],1 to 25
24,O=C(Nc1nnc(-c2ccccn2)[nH]1)c1cccc(NC(=O)C2CCCO2)c1 (stereo not drawn) [drawing 1414],51 to 75
25,O=C(CC1CCCC1)NCC(=O)Nc1nnc(-c2ccccn2)[nH]1 [drawing 1415],1 to 25
26,O=C(Nc1nnc(-c2ccccn2)[nH]1)c1ncoc1-c1cccs1 [drawing 1416],76 to 100

row,SMILES,inhibition at 30 µM [%]
1,O=C(CCNC(=O)c1ccco1)Nc1nnc(-c2ccccn2)[nH]1 [drawing 1417],76 to 100
2,CC(C)COC(C)C(=O)Nc1nnc(-c2ccccn2)[nH]1 (stereo not drawn) [drawing 1418],76 to 100
3,Cc1ccc(CC(=O)Nc2nnc(-c3ccccn3)[nH]2)cn1 [drawing 1419],51 to 75
4,CCn1nnc2cc(C(=O)Nc3nnc(-c4ccccn4)[nH]3)ccc21 [drawing 1420],51 to 75
5,O=C(Nc1nnc(-c2ccccn2)[nH]1)c1nc(N2CCOCC2)ncc1Cl [drawing 1421],76 to 100
6,O=C(Nc1nnc(-c2ccccn2)[nH]1)C1Cc2ccccc2O1 (stereo not drawn) [drawing 1422],1 to 25
7,CC(Oc1ccccc1C#N)C(=O)Nc1nnc(-c2ccccn2)[nH]1 (stereo not drawn) [drawing 1423],76 to 100
8,CC(Oc1cccc(C#N)c1)C(=O)Nc1nnc(-c2ccccn2)[nH]1 (stereo not drawn) [drawing 1424],76 to 100
9,CC(Oc1ccc(C(=O)Nc2nnc(-c3ccccn3)[nH]2)cn1)c1ccccc1 (stereo not drawn) [drawing 1425],76 to 100
10,O=C(Nc1nnc(-c2ccccn2)[nH]1)C1CCCN(c2ncccn2)C1 (stereo not drawn) [drawing 1426],76 to 100
11,O=C(Cc1ccc(F)cc1)Nc1nnc(-c2ccccn2)[nH]1 [drawing 1427],51 to 75
12,CC(OCc1ccccc1)C(=O)Nc1nnc(-c2ccccn2)[nH]1 (stereo not drawn) [drawing 1428],51 to 75
13,CC(COCc1ccccc1)C(=O)Nc1nnc(-c2ccccn2)[nH]1 (stereo not drawn) [drawing 1429],25 to 50
14,O=C(Nc1nnc(-c2ccccn2)[nH]1)C1CCCC(C(F)(F)F)C1 (stereo not drawn) [drawing 1430],76 to 100
15,O=C(COCc1ccccc1Cl)Nc1nnc(-c2ccccn2)[nH]1 [drawing 1431],76 to 100
16,O=C(Nc1nnc(-c2ccccn2)[nH]1)C1CC1c1ccc(F)cc1 (stereo not drawn) [drawing 1432],51 to 75
17,Cc1ccc(CC(=O)Nc2nnc(-c3ccccn3)[nH]2)s1 [drawing 1433],76 to 100
18,O=C(Nc1nnc(-c2ccccn2)[nH]1)c1ccc(OCC2CC2)cc1 [drawing 1434],76 to 100
19,N#Cc1cccc(OCC(=O)Nc2nnc(-c3ccccn3)[nH]2)c1 [drawing 1435],25 to 50
20,Cc1cccc(C(=O)Nc2nnc(-c3ccccn3)[nH]2)n1 [drawing 1436],51 to 75
21,CC(Oc1ccc(C#N)cc1)C(=O)Nc1nnc(-c2ccccn2)[nH]1 (stereo not drawn) [drawing 1437],76 to 100
22,O=C(COc1ccc2c(c1)CCC2)Nc1nnc(-c2ccccn2)[nH]1 [drawing 1438],1 to 25
23,O=C(Nc1nnc(-c2ccccn2)[nH]1)C1CCCN(c2cnccn2)C1 (stereo not drawn) [drawing 1439],76 to 100
24,O=C(Nc1nnc(-c2ccccn2)[nH]1)c1ccc(NC(=O)c2ccccn2)cc1 [drawing 1440],25 to 50
25,COC(=O)c1cncc(C(=O)Nc2nnc(-c3ccccn3)[nH]2)c1 [drawing 1441],25 to 50
26,CCc1ccccc1OCC(=O)Nc1nnc(-c2ccccn2)[nH]1 [drawing 1442],76 to 100

row,SMILES,inhibition at 30 µM [%]
1,CC1CCc2sc(C(=O)Nc3nnc(-c4ccccn4)[nH]3)cc2C1 (stereo not drawn) [drawing 1443],76 to 100
2,Cc1nc(-c2ccccn2)sc1C(=O)Nc1nnc(-c2ccccn2)[nH]1 [drawing 1444],76 to 100
3,Cc1nc2nc(C(F)(F)F)nn2c(C)c1CC(=O)Nc1nnc(-c2ccccn2)[nH]1 [drawing 1445],51 to 75
4,COc1cccc(COCC(=O)Nc2nnc(-c3ccccn3)[nH]2)c1 [drawing 1446],51 to 75
5,COc1ccccc1C1CC1C(=O)Nc1nnc(-c2ccccn2)[nH]1 (stereo not drawn) [drawing 1447],25 to 50
6,O=C(Cn1c(=O)[nH]c2ccccc21)Nc1nnc(-c2ccccn2)[nH]1 [drawing 1448],25 to 50
7,CN(CC(=O)Nc1nnc(-c2ccccn2)[nH]1)Cc1ccccc1 [drawing 1449],51 to 75
8,NC(=O)c1ccc(OCC(=O)Nc2nnc(-c3ccccn3)[nH]2)cc1 [drawing 1450],1 to 25
9,COc1ccccc1-c1cc(C(=O)Nc2nnc(-c3ccccn3)[nH]2)no1 [drawing 1451],76 to 100
10,O=C(Nc1nnc(-c2ccccn2)[nH]1)c1cccc(N2CCCS2(=O)=O)c1 [drawing 1452],1 to 25
11,CC(C)C(=O)Nc1nc(CC(=O)Nc2nnc(-c3ccccn3)[nH]2)cs1 [drawing 1453],76 to 100
12,CC(C)(C)c1nc(C(=O)Nc2nnc(-c3ccccn3)[nH]2)cs1 [drawing 1454],76 to 100
13,O=C(Nc1nnc(-c2ccccn2)[nH]1)C1=NOC(c2ccccc2)C1 (stereo not drawn) [drawing 1455],25 to 50
14,O=C(COc1ccccc1)Nc1nnc(-c2ccccn2)[nH]1 [drawing 1456],25 to 50
15,O=C(Nc1nnc(-c2ccccn2)[nH]1)c1csc(-c2ccco2)n1 [drawing 1457],76 to 100
16,O=C(Nc1nnc(-c2ccccn2)[nH]1)C1CC(=O)N(Cc2cccc(C(F)(F)F)c2)C1 (stereo not drawn) [drawing 1458],76 to 100
17,O=C(Nc1nnc(-c2ccccn2)[nH]1)C1Cc2cc(Cl)ccc2O1 (stereo not drawn) [drawing 1459],76 to 100
18,O=C(Nc1nnc(-c2ccccn2)[nH]1)c1ccc(Oc2cccnc2)cc1 [drawing 1460],76 to 100
19,O=C(Cc1ccc2c(c1)OCCO2)Nc1nnc(-c2ccccn2)[nH]1 [drawing 1461],51 to 75
20,N#CCc1ccc(OCC(=O)Nc2nnc(-c3ccccn3)[nH]2)cc1 [drawing 1462],1 to 25
21,O=C(Nc1nnc(-c2ccccn2)[nH]1)c1ccc(=O)n(CCOc2ccccc2)n1 [drawing 1463],76 to 100
22,Cc1cccc(OCC(=O)Nc2nnc(-c3ccccn3)[nH]2)c1 [drawing 1464],51 to 75
23,O=C(Nc1nnc(-c2ccccn2)[nH]1)C1CCN(C(=O)c2cccs2)CC1 [drawing 1465],76 to 100
24,COc1cn(-c2ccccc2)nc1C(=O)Nc1nnc(-c2ccccn2)[nH]1 [drawing 1466],51 to 75
25,CN(CC(=O)Nc1nnc(-c2ccccn2)[nH]1)S(=O)(=O)c1ccccc1 [drawing 1467],1 to 25
26,O=C(Nc1nnc(-c2ccccn2)[nH]1)c1ccn(-c2cccc(Cl)c2)n1 [drawing 1468],76 to 100
